Among the data in patent US20230000842A1, “METHODS OF TREATING CARTILAGE DISORDERS THROUGH INHIBITION OF CLK AND DYRK” (SAMUMED, LLC, priority 2019, published 2023) are EC50 and Emax values, retold here.

SMILES strings stand for the structures. A value given as a limit tells only on which side of the number the result lay.

One assay deals with CLK2 kinase (Homo sapiens, UniProt P49760). The assay is described as follows: CLK2 kinase activity assay (Z-lyte FRET).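 Also: FRET read-out as coumarin to fluorescein emission ratio, unphosphorylated peptide as 0% and phosphorylated peptide as 100% controls, duplicate reactions, non-linear regression fit of dose-response curves.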 The following applies: Z-lyte Ser/Thr 6 peptide, 60 μM ATP, 1 h at room temperature. In kind it is biochemical.
The test system of assay [1] is primary human mesenchymal stem cells (hMSCs). Briefly: Chondrogenesis screening using primary human mesenchymal stem cells. The conditions noted are these: Homo sapiens, Mesenchymal stem cells, hMSC chondrogenesis; for Emax: maximum activity relative to TGF-β3 (10 ng/mL) positive control, read-out: Max. Activity as % TGF-β3 activity; for EC50: concentration required to induce 50% levels of chondrogenesis with TGF-β3 as positive control, read-out: Conc (nM) of 50% TGF-β3 activity. In kind it is cell-based. A digest of the protocol: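 Primary hMSCs at passage 3–6 were treated across compound concentrations, with TGF-β3 as positive control. Chondrogenic nodule area per well was normalized to 3 DMSO wells on the same plate (fold over DMSO, 2–3 replicates). EC50, maximum activity and the dose reaching it were derived.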

Assay [2] relates to Wnt pathway activity (SW480 colon carcinoma cells stably expressing the Sp5-Luc reporter). Briefly: Wnt pathway activity screening assay (Sp5-Luc reporter gene assay). The conditions noted are these: Homo sapiens, SW480, Table 4; SW480 cells stably expressing Sp5-Luc reporter, 10-point dose-response from 10 μM, 36 to 48 hours.
A further assay deals with CLK3 kinase (Homo sapiens, UniProt P49761). The assay is described as follows: CLK3 kinase activity assay (Z-lyte FRET).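 Also: kinase activity read as coumarin/fluorescein emission ratio by FRET, unphosphorylated peptide as 0% and phosphorylated peptide as 100% control, values from non-linear regression of dose-response curves.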 In kind it is biochemical. The conditions noted are these: Z-lyte Ser/Thr 18 peptide, 156 μM ATP, 1 h at room temperature.
Chain of CLK3 kinase (P49761 whole entry): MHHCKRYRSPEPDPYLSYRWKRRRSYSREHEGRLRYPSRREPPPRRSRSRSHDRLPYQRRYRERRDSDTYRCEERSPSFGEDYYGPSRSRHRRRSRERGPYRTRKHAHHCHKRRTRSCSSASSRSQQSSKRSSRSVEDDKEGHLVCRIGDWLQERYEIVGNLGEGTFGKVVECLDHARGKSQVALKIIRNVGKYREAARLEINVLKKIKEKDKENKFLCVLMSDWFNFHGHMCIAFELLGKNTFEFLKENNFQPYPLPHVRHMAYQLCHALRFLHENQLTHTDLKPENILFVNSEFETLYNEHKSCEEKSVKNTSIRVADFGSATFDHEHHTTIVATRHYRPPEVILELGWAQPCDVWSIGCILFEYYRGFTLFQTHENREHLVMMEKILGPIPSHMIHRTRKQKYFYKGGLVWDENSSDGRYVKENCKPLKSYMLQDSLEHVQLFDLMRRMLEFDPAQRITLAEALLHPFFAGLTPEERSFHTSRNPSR

Chain of CLK2 kinase (P49760 whole entry): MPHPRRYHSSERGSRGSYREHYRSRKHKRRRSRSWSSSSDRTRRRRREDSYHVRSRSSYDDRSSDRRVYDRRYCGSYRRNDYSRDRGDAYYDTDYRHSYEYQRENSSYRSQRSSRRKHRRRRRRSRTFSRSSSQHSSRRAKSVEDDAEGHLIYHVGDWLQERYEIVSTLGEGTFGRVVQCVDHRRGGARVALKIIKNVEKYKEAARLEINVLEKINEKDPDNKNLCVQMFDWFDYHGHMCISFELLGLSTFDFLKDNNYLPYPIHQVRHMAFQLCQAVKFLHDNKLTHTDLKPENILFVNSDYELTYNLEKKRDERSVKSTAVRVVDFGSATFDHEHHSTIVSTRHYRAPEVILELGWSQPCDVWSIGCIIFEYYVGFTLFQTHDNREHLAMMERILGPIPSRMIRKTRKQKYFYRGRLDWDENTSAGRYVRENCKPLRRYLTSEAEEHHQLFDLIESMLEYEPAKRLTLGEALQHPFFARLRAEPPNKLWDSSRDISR

Regarding `c1cc2[nH]c(-c3n[nH]c4ncc(-c5cncc(CN6CCCCC6)c5)cc34)cc2cn1` [compound 451], the EC50 on CLK2 kinase was determined as 5 nM; in assay [2] it was 1540 nM; at CLK3 kinase it was 53 nM. Besides, the Emax in assay [1] was found to be 39.7%.

For `CCC(=O)Nc1cncc(-c2cnc3[nH]nc(-c4cc5c(-c6cccnc6)cccc5[nH]4)c3c2)c1` [compound 348], the EC50 on CLK2 kinase was determined as 3 nM; in assay [1] it was 10 nM; in assay [2], 180 nM; on CLK3 kinase it was 538 nM. For the same molecule, the Emax in assay [1] worked out at 671%.

Regarding `O=C(Nc1cncc(-c2cnc3[nH]nc(-c4nc5c(-c6cccnc6)cncc5[nH]4)c3c2)c1)C1CC1` [compound 190], the EC50 was 5 nM at CLK2 kinase, 23.3 nM in assay [2] and 39 nM at CLK3 kinase. For the same molecule, the Emax in assay [1] is 86.3%.

As for `CC(C)C(=O)Nc1cncc(-c2ccc3[nH]nc(-c4nc5c(-c6ccccc6F)cncc5[nH]4)c3n2)c1` [compound 174], the EC50 on CLK2 kinase was 4 nM; in assay [1] it was 10 nM; in assay [2], above 10000 nM; at CLK3 kinase, 9840 nM. Also, in assay [1], the Emax is 181%.

Regarding `FC1(F)CCN(Cc2cncc(-c3ccc4[nH]nc(-c5cc6c(N7CCCCC7)ccnc6[nH]5)c4n3)c2)C1` [compound 468], the EC50 at CLK2 kinase is 5 nM; in assay [2] it was 5270 nM; at CLK3 kinase, 166 nM. For the same molecule, the Emax in assay [1] was found to be 37.6%.

As to `CC(C)CC(=O)Nc1cncc(-c2cc3c(-c4cc5cccnc5[nH]4)n[nH]c3cn2)c1` [compound 423], the EC50 on CLK2 kinase is 21 nM; in assay [2], above 10000 nM; on CLK3 kinase, 6210 nM. For the same molecule, the Emax in assay [1] came to 40.4%.

On to `CN1CCN(c2ccnc3[nH]c(-c4n[nH]c5ccc(-c6cncc(N)c6)cc45)cc23)CC1` [compound 471], for which the values for the EC50 (at CLK2 kinase; in assay [2]; at CLK3 kinase) were 3 nM, 1170 nM and 89 nM, respectively. Moreover, the Emax in assay [1] was 50.2%.

For the molecule `O=C(Nc1cncc(-c2cc3c(-c4cc5c(-c6cccnc6)cccc5[nH]4)n[nH]c3cn2)c1)C1CC1` [compound 354], the EC50 at CLK2 kinase was 12 nM; in assay [1], 100 nM; in assay [2], 330 nM; on CLK3 kinase, 537 nM. In addition, the Emax in assay [1] stood at 308%.

`c1cncc(-c2ccc3[nH]nc(-c4cc5cccnc5[nH]4)c3n2)c1` [compound 414]: the EC50 on CLK2 kinase was 3 nM; in assay [1], 10 nM; in assay [2], above 10000 nM; on CLK3 kinase, 1360 nM. Besides, in assay [1], the Emax turned out to be 65.9%.

As for `O=C(Nc1cncc(-c2ccc3[nH]nc(-c4nc5c(-c6ccc(F)cc6)cncc5[nH]4)c3c2)c1)C1CCC1` [compound 164], the EC50 on CLK2 kinase was 28 nM; in assay [1] it was 100 nM; in assay [2] it was 5.7 nM; on CLK3 kinase, 87 nM. Besides, the Emax in assay [1] was 203%.

For `Cc1ccncc1-c1cc2c(-c3nc4c(-c5cc(F)cc(CNS(C)(=O)=O)c5)ccnc4[nH]3)n[nH]c2cn1` [compound 291], the EC50 at CLK2 kinase was found to be 32 nM; in assay [1] it was 30 nM; in assay [2] it was 109 nM; at CLK3 kinase, 54 nM. Besides, the Emax in assay [1] worked out at 70%.

Turning to `Cc1ncc(-c2cnc3[nH]nc(-c4cc5c(-c6ccncc6)cncc5[nH]4)c3c2)n1C` [compound 406], the EC50 was 3 nM on CLK2 kinase, above 10000 nM in assay [2] and 227 nM on CLK3 kinase. Besides, in assay [1], the Emax stood at 194%.

`CN1CCN(c2nccc3[nH]c(-c4n[nH]c5cnc(-c6cncc(NC(=O)C7CCCCC7)c6)cc45)cc23)CC1` [compound 483]: the EC50 on CLK2 kinase was 8 nM; in assay [1], 10 nM; in assay [2], 3420 nM; on CLK3 kinase, 303 nM. In assay [1], the Emax stood at 60.8%.

Turning to `CS(=O)(=O)NCc1cc(F)cc(-c2cncc3[nH]c(-c4n[nH]c5ccc(-c6cncc(NC(=O)C7CC7)c6)nc45)cc23)c1` [compound 526], the EC50 at CLK2 kinase was 4 nM; in assay [1], 10 nM; in assay [2], 1300 nM; at CLK3 kinase, 140 nM. Also, the Emax in assay [1] turned out to be 82.9%.

With `O=C(Nc1cncc(-c2cc3c(-c4cc5c(N6CCCCC6)nccc5[nH]4)n[nH]c3cn2)c1)C1CCC1` [compound 461], the EC50 was 19 nM at CLK2 kinase, 4070 nM in assay [2] and 342 nM at CLK3 kinase. For the same molecule, the Emax in assay [1] stood at 42.4%.

On to `CCNCc1cncc(-c2cnc3[nH]nc(-c4cc5c(-c6cccnc6)ccnc5[nH]4)c3c2)c1` [compound 366], for which the EC50 is 4 nM at CLK2 kinase, 10 nM in assay [1], above 10000 nM in assay [2] and 74 nM at CLK3 kinase. In addition, the Emax in assay [1] was 91.8%.

`O=C(Nc1cncc(-c2cnc3[nH]nc(-c4cc5c(-c6cccnc6)cccc5[nH]4)c3c2)c1)C1CCC1` [compound 355]: the EC50 on CLK2 kinase was 8 nM; in assay [2], 202 nM; at CLK3 kinase, 151 nM. For the same molecule, the Emax in assay [1] came to 41.3%.

Regarding `CN(C)Cc1cncc(-c2cc3c(-c4cc5c(-c6cccc(F)c6)nccc5[nH]4)n[nH]c3cn2)c1` [compound 311], the EC50 was determined as 3 nM on CLK2 kinase, 30 nM in assay [1], 1850 nM in assay [2] and 218 nM at CLK3 kinase. In addition, the Emax in assay [1] was found to be 60%.

As for `O=C(Cc1ccccc1)Nc1cncc(-c2ccc3[nH]nc(-c4cc5cnccc5[nH]4)c3c2)c1` [compound 434], the EC50 was 5 nM at CLK2 kinase, 1760 nM in assay [2] and 189 nM on CLK3 kinase. In assay [1], the Emax turned out to be 119%.

As to `Fc1ccc(-c2nccc3[nH]c(-c4n[nH]c5ccc(-c6cncc(CN7CCCC7)c6)cc45)cc23)cc1` [compound 315], the results for the EC50 (at CLK2 kinase; in assay [2]; at CLK3 kinase) were 3 nM, 3620 nM and 139 nM, respectively. For the same molecule, the Emax in assay [1] worked out at 98.5%.

Consider `CN(C)Cc1cncc(-c2cnc3[nH]nc(-c4nc5c(-c6ccsc6)cncc5[nH]4)c3c2)c1` [compound 252], for which the EC50 was determined as 2 nM on CLK2 kinase, 57 nM in assay [2] and 118 nM at CLK3 kinase. Moreover, the Emax in assay [1] turned out to be 91.3%.

Regarding `CN(C)Cc1cncc(-c2ccc3[nH]nc(-c4nc5c(-c6cccc(F)c6)cccc5[nH]4)c3n2)c1` [compound 136], the EC50 at CLK2 kinase is 2 nM; in assay [1], 30 nM; in assay [2], 637 nM; on CLK3 kinase, 109 nM. In assay [1], the Emax was 84.6%.

With `c1cncc(-c2cc3c(-c4cc5cnccc5[nH]4)n[nH]c3cn2)c1` [compound 412], the EC50 at CLK2 kinase was 2 nM; in assay [1], 30 nM; in assay [2], 133 nM; at CLK3 kinase, 88 nM. In assay [1], the Emax stood at 62%.

Take `O=C(CC1CCNCC1)Nc1cncc(-c2ccc3[nH]nc(-c4cc5c(-c6ccoc6)ccnc5[nH]4)c3n2)c1` [compound 501]: the EC50 was 11 nM on CLK2 kinase, 10 nM in assay [1], above 10000 nM in assay [2] and 418 nM at CLK3 kinase. Besides, the Emax in assay [1] was 102%.

`CC(C)C(=O)Nc1cncc(-c2cc3c(-c4cc5c(-c6cccc(F)c6)cncc5[nH]4)n[nH]c3cn2)c1` [compound 307]: the EC50 amounted to 13 nM on CLK2 kinase, 1730 nM in assay [2] and 307 nM at CLK3 kinase. In assay [1], the Emax amounted to 42.2%.

Turning to `CC(C)Nc1cncc(-c2ccc3[nH]nc(-c4nc5c(-c6cccnc6)cncc5[nH]4)c3n2)c1` [compound 194], the EC50 turned out to be 2 nM on CLK2 kinase, 30 nM in assay [1], 1270 nM in assay [2] and 213 nM on CLK3 kinase. In addition, the Emax in assay [1] was 64.6%.

As to `CN1CCN(c2nccc3[nH]c(-c4n[nH]c5ncc(-c6cncc(NC(=O)C7CCCC7)c6)cc45)cc23)CC1` [compound 481], the EC50 on CLK2 kinase was 9 nM; in assay [2], above 10000 nM; on CLK3 kinase, 741 nM. Also, the Emax in assay [1] came out at 30.3%.

Regarding `CS(=O)(=O)NCc1cc(F)cc(-c2cncc3[nH]c(-c4n[nH]c5cnc(-c6cncc(NC(=O)C7CCC7)c6)cc45)cc23)c1` [compound 529], the EC50 on CLK2 kinase is 8 nM; in assay [2] it was above 10000 nM; on CLK3 kinase it was 188 nM. For the same molecule, the Emax in assay [1] turned out to be 15.5%.

Consider `O=C(Nc1cncc(-c2ccc3[nH]nc(-c4nc5c(N6CCCCC6)cncc5[nH]4)c3c2)c1)C1CCC1` [compound 210], for which the EC50 on CLK2 kinase is 7 nM; in assay [1] it was 30 nM; in assay [2], 39 nM; on CLK3 kinase, 54 nM. The Emax in assay [1] came to 106%.

As for `O=C(Nc1cncc(-c2ccc3[nH]nc(-c4cc5c(-c6ccccc6F)nccc5[nH]4)c3c2)c1)C1CCCC1` [compound 331], the EC50 on CLK2 kinase amounted to 15 nM; in assay [2], 418 nM; on CLK3 kinase it was 158 nM. The Emax in assay [1] amounted to 70.8%.

Consider `CS(=O)(=O)NCc1cc(F)cc(-c2cncc3[nH]c(-c4n[nH]c5ccc(-c6cncnc6)nc45)cc23)c1` [compound 538], for which the EC50 was 2 nM on CLK2 kinase, 10 nM in assay [1], 1030 nM in assay [2] and 58 nM at CLK3 kinase. Moreover, the Emax in assay [1] amounted to 106%.
